# From patent publication US11390631B1, “Benzodiazepine derivatives as RSV inhibitors” (priority 2015, dated 2022)
# Test system: Human RSV-A (“Long” strain)
# Experiment: RSV-A assay: inhibition of cytopathic effect in Hep-2 cells, ATPlite readout
# Type: cell-based, Human respiratory syncytial virus (HRSV)
# Details: human respiratory syncytial virus, HEp-2, 120 h, read-out: Human RSV-A (“Long” strain) EC50
# In short: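 Cytopathic-effect protection was read as ATP content (ATPlite luminescence) after a 5-day incubation. Setup: Hep-2 cells at 8,000 per well, RSV-A Long at MOI 0.1, 2-fold serial compound dilutions in duplicate. Cytotoxicity (CC50) was measured on an identical uninfected plate run in parallel.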
row,SMILES,EC50
1,N#Cc1ccc(-c2nnc(N[C@H]3N=C(c4ccccc4)c4ccccc4NC3=O)o2)c(-c2ccsc2)c1 [Example 309],> 800 nM
2,COCCn1nccc1-c1nnc(N[C@H]2N=C(c3ccccc3)c3ccccc3NC2=O)o1 [Example 310],> 800 nM
3,C#Cc1cnc(-c2nnc(N[C@H]3N=C(c4ccccc4)c4ccccc4NC3=O)o2)c(N2CCOCC2)c1 [Example 311],< 400 nM
4,O=C1Nc2ccccc2C(c2ccccc2)=N[C@@H]1Nc1nnc(-c2ncc(C3=CCCCC3)cc2N2CCOCC2)o1 [Example 312],400 to 800 nM
5,O=C1Nc2ccccc2C(c2ccccc2)=N[C@@H]1Nc1nnc(-c2ncc(C3CCCCC3)cc2N2CCOCC2)o1 [Example 313],< 400 nM
6,O=C1Nc2ccccc2C(c2ccccc2)=N[C@@H]1Nc1nnc(-c2ncc(N3CCCC3)cc2N2CCOCC2)o1 [Example 314],< 400 nM
7,O=C1Nc2ccccc2C(c2ccccc2)=N[C@@H]1Nc1nnc(-c2ncc3ccccc3c2N2CCOCC2)o1 [Example 316],> 800 nM
8,O=C1Nc2ccccc2C(c2ccccc2)=N[C@@H]1Nc1nnc(-c2ccc(N3CCCC3)cc2N2CCOCC2)o1 [Example 317],< 400 nM
9,O=C1Nc2ccccc2C(c2ccccc2)=N[C@@H]1Nc1nnc(-c2nc(C3CC3)ccc2N2CCOCC2)o1 [Example 318],< 400 nM
10,N#Cc1ccc(-c2nnc(N[C@H]3N=C(c4ccccc4)c4ccccc4NC3=O)o2)c(-c2ccoc2)c1 [Example 319],> 800 nM
11,Cc1noc(C)c1-c1cc(C#N)ccc1-c1nnc(N[C@H]2N=C(c3ccccc3)c3ccccc3NC2=O)o1 [Example 320],> 800 nM
12,O=C1Nc2ccccc2C(c2ccccc2)=N[C@@H]1Nc1nnc(-c2ncc(C3CC3)cc2N2CC3CCC(C2)O3)o1 [Example 321],< 400 nM
13,N#Cc1cc(N2CCOCC2)c(-c2nnc(N[C@H]3N=C(c4ccccc4)c4ccccc4NC3=O)o2)s1 [Example 323],< 400 nM
14,N#Cc1ccc(N2CCOCC2)c(-c2nnc(N[C@H]3N=C(c4ccccc4)c4ccccc4NC3=O)o2)n1 [Example 324],< 400 nM
15,N#Cc1cnc(-c2nnc(N[C@H]3N=C(c4ccccc4)c4ccccc4NC3=O)o2)c(N2CCOCC2)c1 [Example 325],< 400 nM
16,C[C@@H]1CN(c2cc(C#N)cnc2-c2nnc(N[C@H]3N=C(c4ccccc4)c4ccccc4NC3=O)o2)CCO1 [Example 326],400 to 800 nM
17,CN1CCN(c2cc(C(F)(F)F)cnc2-c2nnc(N[C@H]3N=C(c4ccccc4)c4ccccc4NC3=O)o2)CC1 [Example 327],400 to 800 nM
18,O=C1Nc2ccccc2C(c2ccccc2)=N[C@@H]1Nc1nnc(-c2ncc(C(F)(F)F)cc2N2CCC(O)CC2)o1 [Example 328],> 800 nM
19,C[C@H]1CN(c2cc(C#N)cnc2-c2nnc(N[C@H]3N=C(c4ccccc4)c4ccccc4NC3=O)o2)CCO1 [Example 329],< 400 nM
20,Cc1cc(-c2nnc(N[C@H]3N=C(c4ccccc4)c4ccccc4NC3=O)o2)c(N2CCOCC2)s1 [Example 330],< 400 nM
21,N#CCNc1cc(C(F)(F)F)cnc1-c1nnc(N[C@H]2N=C(c3ccccc3)c3ccccc3NC2=O)o1 [Example 331],> 800 nM
22,CS(=O)(=O)c1cnc(-c2nnc(N[C@H]3N=C(c4ccccc4)c4ccccc4NC3=O)o2)c(N2CCOCC2)c1 [Example 332],> 800 nM
23,N#Cc1cnc(-c2nnc(N[C@H]3N=C(c4ccccc4)c4ccccc4NC3=O)o2)c(N2C3CCC2COC3)c1 [Example 333],400 to 800 nM
24,COCCNc1sc(C)nc1-c1nnc(N[C@H]2N=C(c3ccccc3)c3ccccc3NC2=O)o1 [Example 335],< 400 nM

row,SMILES,EC50
1,Cc1nc(-c2nnc(N[C@H]3N=C(c4ccccc4)c4ccccc4NC3=O)o2)c(N2CCOCC2)o1 [Example 337],< 400 nM
2,COc1ccccc1-c1nc(-c2nnc(N[C@H]3N=C(c4ccccc4)c4ccccc4NC3=O)o2)c(N2CCOCC2)s1 [Example 342],< 400 nM
3,Cc1nc(-c2nnc(N[C@H]3N=C(c4ccccc4)c4ccccc4NC3=O)o2)cs1 [Example 343],> 800 nM
4,Cc1nc(-c2nnc(N[C@H]3N=C(c4ccccc4)c4ccccc4NC3=O)o2)c(Cl)s1 [Example 344],> 800 nM
5,"Cc1nc(-c2nnc(N[C@H]3N=C(c4ccccc4)c4ccccc4NC3=O)o2)c(C2=CCOCC2)s1 [Example 345, (S)-3-((5-(5-(3,6-dihydro-2H-pyran-4-yl)-2-methylthiazol-4-yl)-1,3,4-oxadiazol-2-yl)amino)-5-phenyl-1,3-dihydro-2H-benzo[e][1,4]diazepin-2-one]",< 400 nM
6,"Cc1nc(-c2nnc(N[C@H]3N=C(c4ccccc4)c4ccccc4NC3=O)o2)c(C2CCOCC2)s1 [Example 346, (S)-3-((5-(2-methyl-5-(tetrahydro-2H-pyran-4-yl)thiazol-4-yl)-1,3,4-oxadiazol-2-yl)amino)-5-phenyl-1,3-dihydro-2H-benzo[e][1,4]diazepin-2-one]",< 400 nM
7,O=C1Nc2ccccc2C(c2ccccc2)=N[C@@H]1Nc1nnc(-c2ncsc2C2=CCOCC2)o1 [Example 347],< 400 nM
8,O=C1Nc2ccccc2C(c2ccccc2)=N[C@@H]1Nc1nnc(-c2occc2N2CCOCC2)o1 [Example 348],< 400 nM
9,O=C1Nc2ccccc2C(c2ccccc2)=N[C@@H]1Nc1nnc(-c2ccnn2-c2ccccc2)o1 [Example 349],> 800 nM
10,O=C1Nc2ccccc2C(c2ccccc2)=N[C@@H]1Nc1nnc(-c2cnn(-c3ccccc3)c2)o1 [Example 350],400 to 800 nM
11,"O=C1Nc2ccccc2C(c2ccccc2)=NC1Nc1nnc(-c2ccccc2C2=CCOCC2)o1 (stereo not drawn) [Example 353, 3-((5-(2-(3,6-dihydro-2H-pyran-4-yl)phenyl)-1,3,4-oxadiazol-2-yl)amino)-5-phenyl-1,3-dihydro-2H-benzo[e][1,4]diazepin-2-one]",> 800 nM
12,O=C1Nc2ccccc2C(c2ccccc2)=NC1Nc1nnc(-c2ccccc2C2CCOCC2)o1 (stereo not drawn) [Example 354],> 800 nM
13,O=C1Nc2c(F)cccc2C(c2ccccc2)=N[C@H]1Nc1nnc(-c2ccccc2N2CCOCC2)o1 [Example 355b],> 800 nM
14,O=C1Nc2c(F)cccc2C(c2ccccc2)=NC1Nc1nnc(-c2ccc(N3CCOCC3)cc2)o1 (stereo not drawn) [Example 356],400 to 800 nM
15,N#Cc1cnc(-c2nnc(N[C@H]3N=C(c4ccccc4)c4cccc(F)c4NC3=O)o2)c(N2CCOCC2)c1 [Example 361],< 400 nM
16,O=C1Nc2c(Cl)cccc2C(c2ccccc2)=NC1Nc1nnc(-c2ccccc2N2CCOCC2)o1 (stereo not drawn) [Example 362],> 800 nM
17,O=C1Nc2ccccc2C(c2ccccc2)=NC1Nc1nnc(-c2ccc(F)cc2)[nH]1 (stereo not drawn) [Example 363],> 800 nM
18,N#Cc1ccc(-c2nnc(NC3N=C(c4ccccc4)c4ccccc4NC3=O)[nH]2)cc1 (stereo not drawn) [Example 365],400 to 800 nM
19,O=C1Nc2ccccc2C(c2ccccc2)=NC1Nc1nnc(-c2ccncc2)[nH]1 (stereo not drawn) [Example 366],> 800 nM
20,O=C1Nc2ccccc2C(c2ccccc2)=NC1Nc1nnc(-c2ccccc2N2CCOCC2)[nH]1 (stereo not drawn) [Example 367],> 800 nM
21,N#Cc1ccc(-c2cnc(NC3N=C(c4ccccc4)c4ccccc4NC3=O)o2)cc1 (stereo not drawn) [Example 368],400 to 800 nM
22,O=C1Nc2ccccc2C(c2ccccc2)=NC1Nc1ncc(-c2ccc(F)cc2)o1 (stereo not drawn) [Example 369],> 800 nM
23,O=C1Nc2ccccc2C(c2ccccc2)=NC1Nc1ncc(-c2ccc(Br)cc2)o1 (stereo not drawn) [Example 370],> 800 nM
24,O=C1Nc2ccccc2C(c2ccccc2)=NC1Nc1ncc(-c2ccccc2)cn1 (stereo not drawn) [Example 371],> 800 nM
